Where two headings read alike, the source gives them in different places.
Legend:
SISO cells [1] = test: Fluorescence microscopy for lipid peroxidation (BODIPY 581/591); type: cell-based, human; settings: 100 μM positive control, 24 h
Protocol: In another set of experiments, LPO was visualized by fluorescence microscopy with a dye for lipid peroxides, BODIPY 581/591. […] Together, our results point to apoptosis and not ferroptosis as the mechanism of cell death induced by 4.
Fluorescence microscopy for the detection of lipid peroxidation: SISO cells (250 000 cells) were seeded out in 6‐well plates with an inserted coverslip. Cells were allow to attach for 24 h and then exposed to 25 μM 4 or 100 μM tert‐butyl‐hydroperoxide as a positive control. After 24 h coverslips were washed with PBS and stained with 1 μM BODIPY 581/591 in culture medium for 30 min. Cells on the coverslips were then mounted and examined with a Leica DMi8 fluorescence microscope at λ ex/em=460–500/512–542 nm for the oxidized BODIPY 581/591 and λ ex/em=540–581/592–668 for the reduced form.

bovine erythrocyte GPx = target: T1, bovine erythrocyte GPx (Bos taurus, UniProt P00435); test: GPx enzyme activity assay (TBHP/GSH, GR/NADPH coupled); type: biochemical; settings: 23 °C; n>3; 0.25 mM GSH; read-out: Enzyme inhibition IC50 (CI 95 %)
T1 construct: 180 μL of a bovine erythrocyte GPx1 solution (0.125 U/mL); purchased Sigma Aldrich (Taufkirchen, Germany); host or cells: bovine erythrocytes
T1 sequence (P00435 1-205): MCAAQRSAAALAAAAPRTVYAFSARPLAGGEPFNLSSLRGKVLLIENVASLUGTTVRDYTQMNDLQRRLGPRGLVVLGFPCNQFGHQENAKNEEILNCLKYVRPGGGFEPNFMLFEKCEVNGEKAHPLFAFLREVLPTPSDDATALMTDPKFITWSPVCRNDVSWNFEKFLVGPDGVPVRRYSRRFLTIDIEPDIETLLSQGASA
Protocol: The ability of pentathiepins to inhibit the bovine erythrocyte GPx activity was assayed for by an established enzyme method, which is based on the GPx‐dependent reduction of tert‐butyl hydroperoxide (TBHP) by GSH, leading to the formation of GSSG, which is coupled to the reduction of GSSG back to GSH by glutathione reductase (GR) and the oxidation of NADPH to NADP^+[10] (Figure 1). Inhibition potencies of the compounds were ranked by their IC50 values; that is, concentration of the inhibitor at the inflection point in the sigmoidal log dose‐inhibition curve (Figure 4A), and are summarized for the pentathiepins and mercaptosuccinic acid (MSA) in Table 1.
GPx enzyme activity assay: To evaluate if the various compounds could inhibit GPx1, an enzymatic assay monitoring the activity of the bovine erythrocyte GPx was used as described previously.33 Bovine erythrocyte GPx is highly homologous to the human GPx1 (homology of 87 %)34 but much more affordable. In this assay, GPx reduces tert‐butylhydroperoxide (TBHP) followed by oxidation of glutathione (GSH) to the disulfide (GSSG), which in turn is regenerated to GSH by glutathione reductase (GR) with the consumption of NADPH. To each well of a UV‐transparent 96‐well plate were added 180 μL of a bovine erythrocyte GPx1 solution (0.125 U/mL) and 30 μL of prospective inhibitor in different concentrations diluted in DMF and incubated under shaking for 15 min at room temperature. Then 30 μL of stock solutions of GSH (2.5 mM) and baker's yeast GR plus NADPH (2 U/mL; 2.0 mM) were added. All stock solutions were prepared in potassium phosphate buffer (50 mM, pH 7.4, EDTA 1.1 mM, Triton‐X 0.01 %). The reaction was started by addition of TBHP solution (5 mM), giving final concentrations of 0.075 U/mL bovine erythrocyte GPx, 0.2 U/mL GR, 0.25 mM GSH, 0.2 mM NADPH and prospective inhibitor concentrations between 0.2–100 μM. The reaction was followed by the rate of decreasing absorption of the NADPH at λ=340 nm, measured every 15 s for ca. 20 min. The GPx activity related to untreated control was imported into the GraphPad Prism 6.0 software and the IC50 values were calculated by estimating the inflection point of the sigmoidal log concentration‐activity curves.

SISO cells [2] = test: Alkaline comet assay; type: cell-based, human; settings: 15 min at 0 °C
Protocol: (§1) To assess the induction of DNA strand breaks by pentathiepin 4 the Comet Assay was used. The SISO and HAP‐1 cell lines were treated with either 1 % DMF (solvent control), 20 μM H2O2 (positive control) or 25 μM 4 for 15 min at 0 °C. The DNA in the comet head corresponds to still intact genomic DNA while the tail forms due to the damage of nuclear DNA (Figure 9B). […] For HAP‐1 cells a greater reduction of intact DNA from 86 % in control cells to 66 % in pentathiepin‐incubated cells was observed.
(§2) Alkaline comet assay to assess induction of DNA strand breaks: The method was adapted from Olive and Banath.40 The alkaline protocol allows for the detection of single and double strand breaks as well as alkali‐labile sites and is based on the different electrophoretic mobility of intact and damaged nuclear DNA. […] The induction of strand breaks creates free charged ends that drift out and form the characteristic comet tail. The percentage of DNA that is located in the comet head was selected as descriptor, which corresponds to the amount of still intact genomic DNA.
(§3) Briefly, SISO and HAP‐1 cells were harvested by trypsinization and a single cell suspension with 50 000 cells per mL PBS was prepared. Per condition 50 000 cells were incubated on ice (to impair DNA repair) with either the solvent control DMF (1.0 %), 20 μM H2O2 or 25 μM 4 for 15 min. Afterwards, 400 μL of the cell suspension were mixed with 1.2 mL 1 % low melting point agarose (Carl Roth, Germany) at 40 °C and evenly distributed on agarose‐precoated (GeneOn, Germany) glass slides (Thermo Fisher). After 3 min polymerization the slides were horizontally submerged in lysis buffer (1.2 M NaCl (Carl Roth, Germany), 0.1 % N‐Lauryl‐Sarcosinate (Merck), 0.1 M Na‐EDTA, 0.26 M NaOH) and placed at 4 °C overnight. Before electrophoresis at 0.6 V/cm for 25 min the slides were rinsed three times in rinse/electrophoresis buffer (0.002 M Na‐EDTA, 0.03 M NaOH). Afterwards, the slides were neutralized in distilled water and subsequently stained with 250 μL of a 10 μg/mL PI in water solution for 20 min. Finally, the slides were analyzed with a Leica DMi8 fluorescent microscope and LASX software (Leica, Germany) and comets were scored with CometScore 2.0 (Rex A. Hoover, www.rexhoover.com). At least 100 comets were scored per condition.

[3] = system: SISO human cervix cancer cell line; test: Crystal violet proliferation assay; type: cell-based; settings: 37 °C, 96 h, n>4, read-out: Inhibition of cell viability GI50 (CI 95 %)
Protocol: GI50 values for 50 % growth inhibition were all in a low micro molar range (Table 1). […] The indole−pentathiepins gave lower GI50 values than the pyrrolo[1,2‐a]quinoxaline derivatives. […] There was also a trend showing that an electron rich substituent in position R^2 increased the antiproliferative effect in SISO cells.
Crystal violet proliferation assay: To measure cell growth inhibition, the crystal violet assay was carried out as previously described.37 Adherent cell lines were seeded out in a 96‐well plate (1000 cells per 200 μL culture medium) and allowed to attach for 24 h. Cells were exposed to nine serial dilutions of compound, added to the medium from 1000‐fold concentrated stock solutions in DMF. For the controls, cells were exposed to 0.1 % DMF alone. After addition of compounds, plates for the detection of the starting point of the proliferation at incubation time zero (t 0) were stopped with glutaraldehyde (see below), washed with Dulbecco's buffer (containing KCl 0.2 g/L, MgSO4 ⋅ 7 H2O 0.1 g/L, Na2HPO4 ⋅ >7 H2O 1.55 g/L, KH2HPO4 0.2 g/L and NaCl 8 g/L in water) and stored at 4 °C until the staining procedure. Treated cells were incubated for 96 h in the incubator, the medium was removed and replaced with 100 μL of 1 % glutaraldehyde in Dulbecco's buffer for 20 min. After washing twice with 150 μL of Dulbecco's buffer, the buffer was removed and replaced with 100 μL of a 0.02 % crystal violet solution dissolved in water for 30 min and subsequently washed in tap water for 15 min. Water was removed and replaced with 100 μL of ethanol (70 % in water) followed by shaking on a 96‐well shaker (MS3 digital, IKA‐Werke, Germany) for 2 h. Optical density was measured with a SpectraMax Plus 383 microtiter plate reader at λ=570 nm (Molecular Devices, USA). The optical density of t 0 plates at the time of treatment were subtracted from optical densities of plates with treated cells after 96 h (T), and the growth inhibition relative to untreated, control cells (C) as described.22 Growth inhibition concentrations at 50 % (GI50) were calculated by determining the inflection point of the sigmoidal log dose‐growth inhibition (%T/C) curves with the GraphPad Prism 6.0 software.

HAP-1 cells [4] = test: Fluorescence microscopy of mitochondrial membrane potential (JC-1); type: cell-based, human; settings: positive control, 2.5 μg/L, 1 h
Excerpt: To determine if 4 influences the mitochondrial membrane potential (MMP), the fluorescent dye JC‐1 was used together with fluorescence microscopy.
Fluorescence microscopy of mitochondrial membrane potential: To detect possible effects of 5 on the mitochondrial membrane potential (MMP) of HAP‐1 cells the fluorescent dye JC‐1 was used.39 JC‐1 accumulates into living cells and is present in monomers in the cytosol. It can also cross the membrane of active mitochondria, were aggregates form. When excited at λ=488 nm, JC‐1 monomers give a green fluorescence while JC‐1 aggregates show red fluorescence. […] Briefly, 10^5 cells in 500 μL medium were seeded out into a chamber of a four‐well chamber‐slide and allowed to attach for 24 h. After incubation with 4 at various concentrations, cells were exposed to the JC‐1 solution for 15 min according to the manufacturer's protocol (BD Bioscience, USA). Cells on the slides were then mounted and examined with a Leica DMi8 fluorescence microscope (Leica, Germany), at λ ex/em=488/512–542 nm for JC‐1 monomers and λ ex/em=488/565–605 nm for agglomerates.

HAP-1 cells [5] = test: Alkaline comet assay; type: cell-based, human; settings: 20 μM positive control, 15 min at 0 °C
Protocol: as §1, §2, §3

bovine GPx1 = target: T2, bovine GPx1 (Bos taurus, UniProt P00435); test: Jump-dilution experiments for reversibility of GPx1 inhibition; type: biochemical; settings: 30 min pre-incubation at 23 °C, 100-fold jump-dilution
T2 construct: 180 μL of a bovine erythrocyte GPx1 solution (0.125 U/mL); purchased Sigma Aldrich (Taufkirchen, Germany); host or cells: bovine erythrocytes
T2 sequence (P00435 1-205): T1 sequence (P00435 1-205)
Protocol: No difference in the inhibitory activity of 4 after jump‐dilution (Figure 4B left, a) was observed compared to expected inhibition at 0.25 μM (Figure 4B left, 0.25 μM), evidence that GPx1 inhibition is reversible. […] This is consistent with findings that MSA can act as an irreversible inhibitor of GPx1.11 In further jump‐dilution experiments, we pre‐incubated both inhibitors with the assay concentrations of either GSH and TBHP (a, d) or GSH only (b, e), with (a–c) and without (d–f) GPx1 for 30 min.
The jump‐dilution experiments were carried out in a 96‐well plates at room temperature. To each well was added 75 μL of a 20 IU mL^−1 GPx stock‐solution followed by the addition of 3 μL of a 2.5 mM solution of 4 in DMF and 30 μL of a 2.5 mM solution of GSH in buffer or 30 μL of a 2.5 mM solution of GSH in buffer and 30 μL of a 5 mM solution of TBHP in water and 300 μL buffer. The plates were shaken for 30 min in the dark, then each well was diluted 100 fold into a second plate prepared for the GPx‐assay. The enzyme activity was immediately measured as described above.

human GPx = test: GPx activity assay with human cancer cell lysates (SISO); type: biochemical; settings: inhibitor at its IC50 for bovine GPx, 0.5 mM GSH
Protocol: To investigate whether the pentathiepins have an inhibitory effect on human GPx, cell lysates of the human cervix cancer cell line SISO, which expresses high levels of GPx1 (see below), were incubated with either 4 or MSA in concentrations of the IC50 value for the inhibitory effect on bovine GPx1.
To measure the inhibition of human GPx activity, the enzyme assay was adapted to use human cancer cell lysates in place of the bovine enzyme. A quantity of 100 μg cellular protein (determined according to the Bradford method) per well was used. Due to the large consumption of cell lysates, just the inhibitory effect on GPx at one concentration of pentathiepin was determined in primary screening. The concentration of GSH was raised to a concentration of 0.5 mM to increase the velocity of the reaction, all other conditions were unchanged. The rates of NADPH oxidation were normalized to the solvent control. […] We used 100 μg protein of lysates and added GSH up to final concentrations between 0.375–3 mM. The rates of the GPx activity were calculated by nonlinear regression and the fitted with the GraphPad Prism 6.0 software: “Enzyme kinetics – Substrate vs. Velocity (Michaelis‐Menten)”.

CC(C)(C)OO [tBuOOH, reference compound]
lipid peroxidation (LPO) (SISO cells [1]): showed LPO

CCOc1c2c(c3c(C(F)(F)F)nc4cc(C)ccc4n13)SSSSS2 [Compound 3, 12‐Ethoxy‐3‐methyl‐6‐(trifluoromethyl)‐[1,2,3,4,5]pentathiepino[6′,7′ : 3,4]pyrrolo[1,2‐a]quinoxaline]
IC50 (bovine erythrocyte GPx): 0.47 µM

CCOc1c2c(c3c(C(F)(F)F)nc4cc(C)c(C)cc4n13)SSSSS2 [Compound 5, 12‐Ethoxy‐2,3‐dimethyl‐6‐(trifluoromethyl)‐[1,2,3,4,5]pentathiepino[6′,7′ : 3,4]pyrrolo[1,2‐a]quinoxaline]
percentage of undamaged (intact) DNA in comet head (SISO cells [2]; 25 μM): 80%
IC50 (bovine erythrocyte GPx): 1.86 µM

CCOc1c2c(c3cnc4ccccc4n13)SSSSS2 [Compound 1]
IC50 (bovine erythrocyte GPx): 1.76 µM

c1ccc(Cn2c3c(c4ccccc42)SSSSS3)cc1 [Compound 8, 6‐Benzyl‐6H‐[1,2,3,4,5]pentathiepino[6,7‐b]indole]
IC50 (bovine erythrocyte GPx): 0.83 µM
GI50 ([3]; Homo sapiens): 1.4 µM

N#CC(C#N)=NNc1ccc(OC(F)(F)F)cc1 [FCCP, carbonyl cyanide‐p‐trifluoromethoxyphenylhydrazone]
mitochondrial membrane potential (MMP) (HAP-1 cells [4]): complete loss of MMP

CCOc1c2c(c3cnc4cc(C)ccc4n13)SSSSS2 [Compound 2, 12‐Ethoxy‐3‐methyl‐[1,2,3,4,5]pentathiepino[6′,7′ : 3,4]pyrrolo[1,2‐a]quinoxaline]
IC50 (bovine erythrocyte GPx): 0.52 µM

CCn1c2c(c3cc(Cl)ccc31)SSSSS2 [Compound 7, 9‐Chloro‐6‐ethyl‐6H‐[1,2,3,4,5]pentathiepino[6,7‐b]indole]
IC50 (bovine erythrocyte GPx): 0.4 µM
GI50 ([3]; Homo sapiens): 1.5 µM

Cn1c2c(c3ccccc31)SSSSS2 [Compound 6, 6‐Methyl‐6H‐[1,2,3,4,5]pentathiepino[6,7‐b]indole]
IC50 (bovine erythrocyte GPx): 0.95 µM
GI50 ([3]; Homo sapiens): 3.5 µM

OO [Compound H2O2, hydrogen peroxide, reference compound]
intact DNA in comet head (HAP-1 cells [5]): significant decreases of intact DNA
intact DNA in comet head (SISO cells [2]; 20 μM positive control): significant decreases of intact DNA

O=C(O)CC(S)C(=O)O (stereo not shown) [MSA, mercaptosuccinic acid, reference compound]
reversibility of GPx1 inhibition (bovine GPx1): some irreversible inhibition had occurred
IC50 (bovine erythrocyte GPx): 5.86 µM
inhibition of GPx activity (human GPx): 60%
GI50 [3]: 57.1 µM

From article PMC7496275, “Pentathiepins: A Novel Class of Glutathione Peroxidase 1 Inhibitors that Induce Oxidative Stress, Loss of Mitochondrial Membrane Potential and Apoptosis in Human Cancer Cells” (Chemmedchem, 2020)
